According to US8420653B2, “Pyrimidine compounds and their uses” (Orchid Chemicals & Pharmaceuticals Limited, priority 2008, dated 2013):

Legend:
[1] = test system: purified recombinant COX-1; assay: COX-1 enzyme based assay; assay type: biochemical
Description: COX-1 and COX-2 enzyme based assays were carried out to check the inhibitory potential of the test compounds on the production of prostaglandin by purified recombinant COX-1/COX-2 enzyme (Proc. Nat. Acad. Sci. USA, 88, 2692-2696, 1991; J. Clin. Immunoassay 15, 116-120, 1992). In this assay, the potential of the test compound to inhibit the production of prostaglandin either by COX-1 or COX-2 from arachidonic acid (substrate) was measured. This was an enzyme based in-vitro assay to evaluate selective COX inhibition with good reproducibility.
Arachidonic acid was converted to PGH2 (Intermediate product) by COX1/COX-2 in the presence or absence of the test compound. The reaction was carried out at 37° C. and after 2 minutes it was stopped by adding 1M HCl. Intermediate product PGH2 was converted to a stable prostanoid product PGF2α by SnCl2 reduction. The amount of PGF2α produced in the reaction was inversely proportional to the COX inhibitory potential of the test compound. The prostanoid product was quantified via enzyme immunoassay (EIA) using a broadly specific antibody that binds to all the major forms of prostaglandin, using Cayman ELISA kit as per the procedure outlined by the manufacturer (Cayman Chemicals, Ann Arbor, USA).

ulcer formation = assay: Ulcerogenic potential; assay type: in vivo, male wistar; conditions: oral, 4 hours after administration
Description: Ulcerogenic Potential In order to evaluate the compound's role on the ulcer formation, the animals were sacrificed and the stomach was taken out and flushed with 1% formalin. Animals (male wistar 200 g) were fasted for 18 hours with free access to water and the test compounds were suspended in 0.5% Tween 80 and 0.25% CMC (carboxymethylcellulose) solution to make a uniform suspension. After 4 hours of oral administration of test compounds, all the animals were sacrificed by cervical dislocation. The stomach was dissected carefully and filled up with a sterile saline solution and embedded in 6% formalin solution. […] The test compound treated groups were compared with the vehicle treated groups. […]

PDE4 = test system: T1, PDE4; assay: PDE4 activity (source human U937 cells); assay type: biochemical; conditions: 10 μM, source human U937 cells
T1 construct: other: 10 μM, source human U937 cells; PDE4 at 10 μm
Description: PDE4 inhibition was measured by following a literature assay procedure (Cortizo J et al., Br J. Pharmacol., 1993, 108: 562-568. The assay method involves the following conditions.
Substrate: 1.01 μM [^3H] camp+camp
Pre-Incubation Time/Temperature: 15 minutes at 25° C.
Incubation Time/Temperature. 20 minutes at 25° C.
Incubation buffer: 50 mM Tris-HCl, pH 7.5, 5 mM MgCl2
Quantitation method: Quantitation of [^3H] Adenosine
Significance criteria: ≧50% of max stimulation or inhibition

## CNS(=O)(=O)c1ccc(-c2c(N)nc(C(F)(F)F)nc2-c2ccc(S(C)(=O)=O)cc2)cc1 [Example 2, 4-{4-Amino-6-[4-(methylsulfonyl)phenyl]-2-(trifluoromethyl)pyrimidin-5-yl}-N-methylbenzenesulfonamide]
[1]; 1 μM
  % Inhibition in rEnzyme Assay COX-1: 33.84%
[1]; 10 μM
  % Inhibition in rEnzyme Assay COX-1: 50.41%

## CS(=O)(=O)c1ccc(-c2nc(C(F)(F)F)nc(Cl)c2-c2ccc(S(=O)(=O)Cl)cc2)cc1 [Example 3, 4-{4-chloro-6-[4-(methylsulfonyl)phenyl]-2-(trifluoromethyl)pyrimidin-5-yl}benzenesulfonyl chloride]
other
  melting point: 207 to 210 °C

## CNS(=O)(=O)c1ccc(-c2c(Cl)nc(C(F)(F)F)nc2-c2ccc(S(C)(=O)=O)cc2)cc1 [Example 4, 4-{4-chloro-6-[4-(methylsulfonyl)phenyl]-2-(trifluoromethyl)pyrimidin-5-yl}-N-methylbenzenesulfonamide]
other
  melting point: 226 to 230 °C
Ulcer formation
  Ulcer incidence at 5 mg/kg: Nil

## CNc1nc(C(F)(F)F)nc(-c2ccc(S(C)(=O)=O)cc2)c1-c1ccc(S(=O)(=O)NC)cc1 [Example 5, 4-{4-(Methylamino)-6-[4-(methylsulfonyl)phenyl]-2-(trifluoromethyl)pyrimidin-5-yl}-N-methylbenzenesulfonamide]
Ulcer formation
  Ulcer incidence at 5 mg/kg: Nil

## CS(=O)(=O)c1ccc(-c2nc(C(F)(F)F)nc(NN)c2-c2ccc(S(=O)(=O)NN)cc2)cc1 [Example 7, 4-{4-hydrazino-6-[4-(methylsulfonyl)phenyl]-2-(trifluoromethyl)pyrimidin-5-yl}benzenesulfonohydrazide]
other
  melting point: 203 to 206 °C

## O=C(NNc1nc(C(F)(F)F)nc(-c2ccncc2)c1-c1ccc(F)cc1)C(F)(F)F [Example 14, 2,2,2-trifluoro-N′-[5-(4-fluorophenyl)-6-pyridin-4-yl-2-(trifluoromethyl)pyrimidin-4-yl]acetohydrazide]
other
  melting point: 240 to 242 °C

## CC(=O)NS(=O)(=O)c1ccc(-c2c(Cl)nc(C(F)(F)F)nc2-c2ccc(S(C)(=O)=O)cc2)cc1 [Example 17, N-[(4-{4-chloro-6-[4-(methylsulfonyl)phenyl]-2-(trifluoromethyl)pyrimidin-5-yl}phenyl)sulfonyl]acetamide]
other
  melting point: 230 to 235 °C

## CS(=O)(=O)c1ccc(-c2nc(C(F)(F)F)nc(OS(=O)(=O)c3cccc4ccccc34)c2-c2ccccc2)cc1 [Example 18, 6-[4-(methylsulfonyl)phenyl]-5-phenyl-2-(trifluoromethyl)pyrimidin-4-yl napthalenesulfonate]
other
  melting point: 204 to 206 °C

## CS(=O)(=O)c1ccc(-c2nc(C(F)(F)F)nc(N3CCN(Cc4ccncc4)CC3)c2-c2ccccc2)cc1 [Example 46, 4-[4-(Methylsulfonyl)phenyl]-5-phenyl-6-[4-(pyridin-4-ylmethyl)piperazin-1-yl]-2-(trifluoromethyl)pyrimidine]
other
  melting point: 228 to 232 °C

## CS(=O)(=O)c1ccc(-c2nc(C(F)(F)F)nc(N3CCN(Cc4ccc([N+](=O)[O-])s4)CC3)c2-c2ccccc2)cc1 [Example 47, 6-[4-(Methylsulfonyl)phenyl]-4-{4-[(5-nitro-2-thienyl)methyl]piperazin-1-yl}-5-phenyl-2-(trifluoromethyl)pyrimidine]
other
  melting point: 168 to 174 °C

## FC(F)(F)c1nc(-c2ccccc2)c(-c2ccccc2)c(N2CCN(c3ccccn3)CC2)n1 [Example 48, 4,5-diphenyl-6-(4-pyridin-2-yl-piperazin-1-yl)-2-(trifluoromethyl)pyrimidine]
other
  melting point: 165 to 167 °C

## CS(=O)(=O)c1ccc(-c2nc(C(F)(F)F)nc(N3CCN(c4ccccn4)CC3)c2-c2ccccc2)cc1 [Example 49, 4-[4-(Methylsulfonyl)phenyl]-5-phenyl-6-(4-pyridin-2-yl-piperazin-1-yl)-2-(trifluoromethyl)pyrimidine]
other
  melting point: 229 to 233 °C

## NS(=O)(=O)c1cccc(-c2c(-c3ccccc3)nc(C(F)(F)F)nc2N2CCNCC2)c1 [Example 51, 3-[4-Phenyl-6-piperazin-1-yl-2-(trifluoromethyl)pyrimidin-5-yl]benzenesulfonamide]
[1]; 1 μM
  % Inhibition in rEnzyme Assay COX-1: 8.27%
[1]; 10 μM
  % Inhibition in rEnzyme Assay COX-1: 7.1%

## NS(=O)(=O)c1cccc(-c2c(-c3ccc(F)cc3)nc(C(F)(F)F)nc2N2CCN(c3ccccn3)CC2)c1 [Example 53, 3-[4-(4-Fluorophenyl)-6-(4-pyridin-2-ylpiperazin-1-yl)-2-(trifluoromethyl)pyrimidin-5-yl]benzenesulfonamide]
[1]; 1 μM
  % Inhibition in rEnzyme Assay COX-1: 46.29%
[1]; 10 μM
  % Inhibition in rEnzyme Assay COX-1: 56.85%

## NS(=O)(=O)c1cccc(-c2c(-c3ccc(F)cc3)nc(C(F)(F)F)nc2N2CCN(c3ncccn3)CC2)c1 [Example 54, 3-[4-(4-Fluorophenyl)-6-(4-pyrimidin-2-ylpiperazin-1-yl)-2-(trifluoromethyl)pyrimidin-5-yl]benzenesulfonamide]
[1]; 1 μM
  % Inhibition in rEnzyme Assay COX-1: 34.42%
[1]; 10 μM
  % Inhibition in rEnzyme Assay COX-1: 45.53%

## NS(=O)(=O)c1cccc(-c2c(-c3ccccc3)nc(C(F)(F)F)nc2N2CCN(c3ncccn3)CC2)c1 [Example 57]
[1]; 10 μM
  % Inhibition in rEnzyme Assay COX-1: 5.7%

## NS(=O)(=O)c1cccc(-c2c(-c3ccccc3)nc(C(F)(F)F)nc2N2CCN(c3ccccn3)CC2)c1 [Example 58]
[1]; 1 μM
  % Inhibition in rEnzyme Assay COX-1: 10.22%
[1]; 10 μM
  % Inhibition in rEnzyme Assay COX-1: 9.59%

## NS(=O)(=O)c1cccc(-c2c(-c3ccc(F)cc3)nc(C(F)(F)F)nc2N2CCN(S(=O)(=O)C(F)(F)F)CC2)c1 [Example 77, 5-(3-Aminosulfonylphenyl)-4-(4-fluorophenyl)-2-(trifluoromethyl)-6-{4-[(trifluoromethyl)sulfonyl]piperazin-1-yl}pyrimidine]
PDE4
  PDE4 inhibition at 10 μM (%): 94%

## N#CCCN1CCN(c2nc(C(F)(F)F)nc(-c3ccc(F)cc3)c2-c2cccc(S(N)(=O)=O)c2)CC1 [Example 100, 3-{4-[4-(2-cyanoethyl)piperazin-1-yl]-6-(4-fluorophenyl)-2-(trifluoromethyl)pyrimidin-5-yl}benzenesulfonamide]
PDE4
  PDE4 inhibition at 10 μM (%): 92%

## NS(=O)(=O)c1cccc(-c2c(-c3ccc(F)cc3)nc(C(F)(F)F)nc2N2CCN(C(=O)C(F)(F)F)CC2)c1 [Example 109, 3-{6-(4-Fluorophenyl)-4-[4-(trifluoroacetyl)piperazin-1-yl]-2-(trifluoromethyl)pyrimidin-5-yl}benzenesulfonamide]
PDE4
  PDE4 inhibition at 10 μM (%): 90%

## NS(=O)(=O)c1cccc(-c2c(-c3ccccc3)nc(C(F)(F)F)nc2N2CCN(c3ccc(C(F)(F)F)cn3)CC2)c1 [Example 116, 3-[6-{4-[5-(trifluoromethyl)pyridin-2-yl]piperazin-1-yl}-4-phenyl-2-(trifluoromethyl)pyrimidin-4-yl]benzenesulfonamide]
[1]; 1 μM
  % Inhibition in rEnzyme Assay COX-1: 6.29%
[1]; 10 μM
  % Inhibition in rEnzyme Assay COX-1: 19.24%

## NS(=O)(=O)c1cccc(-c2nc(C(F)(F)F)nc(-n3ccnc3)c2-c2ccccc2)c1 [Example 167, 3-[4-(1H-imidazol-1-yl)-5-phenyl-2-(trifluoromethyl)pyrimidin-6-yl]benzenesulfonamide]
PDE4
  PDE4 inhibition at 10 μM (%): 82%

## NS(=O)(=O)c1cccc(-c2c(-c3ccccc3)nc(C(F)(F)F)nc2N2CCN(C(=O)C(F)(F)F)CC2)c1 [Example 173, 3-{6-Phenyl-4-[4-(trifluoroacetyl)piperazin-1-yl]-2-(trifluoromethyl)pyrimidin-5-yl}benzenesulfonamide]
PDE4
  PDE4 inhibition at 10 μM (%): 87%

## Fc1ccc(-c2nc(C(F)(F)F)nc(NC3CC3)c2-c2ccccc2)cc1 [Example 175, N-Cyclopropyl-6-(4-fluorophenyl)-5-phenyl-2-(trifluoromethyl)pyrimidin-4-amine]
PDE4
  PDE4 inhibition at 10 μM (%): 88%

## NS(=O)(=O)c1cccc(-c2c(-c3ccccc3)nc(C(F)(F)F)nc2N2CCC(=O)CC2)c1 [Example 179, 3-[6-Phenyl-4-(4-oxopiperidin-1-yl)-2-(trifluoromethyl)pyrimidin-5-yl]benzenesulfonamide]
PDE4
  PDE4 inhibition at 10 μM (%): 84%
